Measurements as given in article PMC10974018, “The Development and Characterization of Novel Ionic Liquids Based on Mono- and Dicarboxylates with Meglumine for Drug Solubilizers and Skin Permeation Enhancers” (Pharmaceutics, 2024).

Tests used:
[1] = Solubility capability of drug-in-IL (organic acid/MGM ionic liquids), confirmed by PXRD; assay type: physicochemical; details: for upper limit of drug dissolution in IL: in GA-MGM 1:1, PXRD
Description: […] Next, 1, 10, 20… w/w% of each drug and water and ethanol as the solvent was added to the MGM and organic acid solution, and then the preparation was sonicated to be completely dissolved. The resulting solution was evaporated using a thermostat at 65 °C and then vacuum-dried at 40 °C for 24 h.
The solubilization power of ILs is attributed to a range of interactions, such as ionic, van der Waals, π–π, and hydrogen bonding. […] To determine the solubility capability of the ILs, drug-in-IL complexes were prepared. Subsequently, these complexes were analyzed via PXRD to confirm dissolution. PXRD is a technique used to validate the crystalline structure of a drug or excipients in a preparation. The absence of a drug’s crystal form in PXRD indicates the complete solubilization of the drug in the IL.

[2] = as above; assay type: physicochemical; details: for upper limit of drug dissolution in IL: PXRD
[3] = cited from earlier work
[4] = cited from earlier work; remark: listed apart in the source

Row | Compound | Log P [3] | pKa [4] | also measured
1 | C[C@@H]1O[C@@H](OC[C@H]2O[C@@H](Oc3c(-c4ccc(O)c(O)c4)oc4cc(O)cc(O)c4c3=O)[C@H](O)[C@@H](O)[C@@H]2O)[C@H](O)[C@H](O)[C@H]1O [Rutin] | −1.33 | 6.43 | upper limit of drug dissolution in IL [1]: ≥ 20%; upper limit of drug dissolution in IL ([2]; in AA-MGM 1:2): greater than 10%
2 | Oc1ncnc2[nH]ncc12 [Allopurinol (ALP), Allopurinol] | −1.80 | 9.34 | –
3 | O=C(O)C(O)C(O)C(=O)O (centres unmarked) [Tartaric acid (TA), Tartaric acid] | −1.8 | – | –
4 | O=C(O)CCCCCCCC(=O)O [Azelaic acid (AA), Azelaic acid] | 1.57 | 4.55 | –
5 | Curcumin [Curcumin (CCM)] | – | 8.09 | –
6 | CC(C)N(CCC(C(N)=O)(c1ccccc1)c1ccccn1)C(C)C (centres unmarked) [Disopyramide (DPA), Disopyramide] | – | – | solubility in ILs ([1]; all ILs (TA/MGM, AA/MGM, GA/MGM, CPA/MGM)): 100%
7 | CC(C)=CCC/C(C)=C/C(=O)O [Geranic acid (GA), Geranic acid] | 3.07 | 5.26 | –
8 | COC1=C(OC)C(=O)C(C/C=C(\C)CC/C=C(\C)CC/C=C(\C)CC/C=C(\C)CC/C=C(\C)CC/C=C(\C)CC/C=C(\C)CC/C=C(\C)CC/C=C(\C)CCC=C(C)C)=C(C)C1=O [Coenzyme Q10 (CoQ10), Coenzyme Q10] | 9.94 | 10.9 | upper limit of drug dissolution in IL ([2]; in AA-MGM 1:2): greater than 10%
9 | O=[N+]([O-])O[C@@H]1CO[C@H]2[C@@H]1OC[C@@H]2O [Isosorbide mononitrate (ISMN), Isosorbide mononitrate] | −0.15 | – | upper limit of drug dissolution in IL [1]: ≥ 20%; dissolution of drug in IL by PXRD (drug-derived crystal peaks) ([2]; 5% and 10% drug in TA-MGM 1:2): cannot be completely dissolved; upper limit of drug dissolution in IL ([2]; in AA-MGM 1:2): greater than 10%
10 | CCOc1ccccc1C(N)=O [Ethenzamide (ETZ), Ethenzamide] | 1.02 | 13.7 | –
11 | Minoxidil [Minoxidil (MXD)] | 1.24 | 4.61 | –
12 | COc1cc(/C=C/C(=O)O)ccc1O [Ferulic acid (FA), Ferulic acid] | – | 4.58 | –
13 | C[C@H](CS)C(=O)N1CCC[C@H]1C(=O)O [Captopril (CPP), Captopril] | – | 3.64 | upper limit of drug dissolution in IL [1]: ≥ 20%; upper limit of drug dissolution in IL ([2]; in AA-MGM 1:2): greater than 10%; upper limit of drug dissolution in IL ([2]; in TA-MGM 1:2): 80%
14 | COc1ccccc1OCCNCC(O)COc1cccc2[nH]c3ccccc3c12 (centres unmarked) [Carvedilol (CVD), Carvedilol] | 4.19 | – | –
15 | CC1COc2c(N3CCN(C)CC3)c(F)cc3c(=O)c(C(=O)O)cn1c23 (centres unmarked) [Ofloxacin (OFLX), Ofloxacin] | −0.48 | – | pKa1 [4]: 5.97; pKa2 [4]: 9.28
16 | CC(C(=O)O)c1ccc(-c2ccccc2)c(F)c1 (centres unmarked) [Flurbiprofen (FRP), Flurbiprofen] | – | 3.78 | upper limit of drug dissolution in IL [1]: ≥ 20%; upper limit of drug dissolution in IL ([2]; in AA-MGM 1:2): greater than 10%; upper limit of drug dissolution in IL ([2]; in TA-MGM 1:2): 10%
17 | CNC[C@H](O)[C@@H](O)[C@H](O)[C@H](O)CO [Meglumine (MGM), Meglumine] | – | 9.52 | –
